# Test results published in publication PMC11009625, “Antibiotic class with potent in vivo activity targeting lipopolysaccharide synthesis in Gram-negative bacteria” (Proceedings of the National Academy of Sciences of the …, 2024).
# pIC50: −log10 of the molar value.
# Target: T1, E. coli LpxH (Escherichia coli, UniProt P43341)
# T1 construct: His6 (C); made in house; host or cells: E. coli BL21-AI (pET-26b(+), synthetic gene from GenScript)
# Assay: MBP-AaLpxE-coupled LpxH activity assay (malachite green)
# Assay type: biochemical
# Settings: read-out: E. coli LpxH enzyme inhibition IC50
# Description: E. coli-optimized EcLpxH and KpLpxH sequences, cloned into a pET-26b(+) vector (Novagene) using NdeI/XhoI restriction sites, were ordered from GenScript Biotech (the Netherlands), giving constructs with a His6-tag at the C-terminal end, and bearing kanamycin resistance. Competent E. coli BL21-AI cells (Invitrogen) were transformed and grown at 37 °C in Luria broth containing 50 μg/mL kanamycin to an OD600 of 0.5 to 1.0, then induced for 2 to 3 h by adding IPTG and L-arabinose to final concentrations of 0.5 mM and of 2 mg/mL, respectively. Harvested cells were lysed in a One-Shot cell disrupter (Constant Systems Ltd., UK) in 20 mM Tris-HCl pH 8.0, 300 mM NaCl, 20 mM imidazole, 4 M urea, 5% (v/v) glycerol, 0.01 mg/mL RNase A and 0.02 mg/mL DNase, plus cOmplete, EDTA-free protease inhibitor cocktail (Roche). Proteins were purified using Ni-nitrilotriacetic acid agarose (Qiagen), HiTrap Heparin HP affinity chromatography (Cytiva), and HiLoad 16/60 Superdex 200 chromatography (Amersham Biosciences). Final samples were concentrated to 15 mg/mL protein and stored in aliquots in 20 mM Tris-HCl (pH 8.0) containing 300 mM NaCl and 2 mM DTT at −80 °C. Assays were performed essentially as described by ref. [26]. Additional assay details are available in SI Appendix.
# Cloning, expression and purification of LpxHs. E. coli-optimized EcLpxH and KpLpxH sequences, cloned into a pET-26b(+) vector (Novagene) using NdeI/XhoI restriction sites, were ordered from GenScript Biotech (the Netherlands), giving constructs with a His6-tag at the C-terminal end, and bearing kanamycin resistance. The correctness of the sequences was verified by DNA sequencing. Competent E. coli BL21-AI cells (Invitrogen) were transformed with the resulting plasmids for protein production.
# Cultures of 8 L of Luria broth containing 50 μg/mL kanamycin were grown at 37 °C to an OD600 of 0.5-1.0, then induced by adding IPTG to a final concentration of 0.5 mM and L-arabinose to a final concentration of 2 mg/ml. After 2-3 h of incubation at 37 °C, cells were harvested by centrifugation, and the pellet was resuspended in lysis buffer (20 mM Tris-HCl pH 8.0, 300 mM NaCl, 20 mM imidazole, 4 M urea, 5% (v/v) glycerol, 0.01 mg/mL RNase A and 0.02 mg/mL DNase, plus one tablet of cOmplete, EDTA-free cocktail protease inhibitor cocktail (Roche)).
# Cells were lysed using a One-Shot cell disrupter (Constant Systems Ltd., UK). The lysate was spun down and the soluble fraction containing LpxH was incubated at 4 °C overnight with 1.5 mL pre-equilibrated Ni-nitrilotriacetic acid agarose (Qiagen) slurry using the same buffer. The column was then washed in steps of 30 column volumes with lysis buffer (without RNase A, DNase and protease inhibitor) containing 3, 2, 1, 0.5 and 0 M of urea. The protein was then eluted with eight column volumes of 500 mM imidazole in the same buffer. Fractions containing the desired protein as judged by SDS gels were pooled and purified on a HiTrap Heparin HP affinity column (Cytiva) (loading buffer 20 mM Tris-HCl, pH 8.0 and 5% glycerol, 2 mM DTT; elution buffer 20 mM Tris-HCl, pH 8.0 and 5% glycerol, 1 M NaCl, 2 mM DTT) and further applied to a HiLoad 16/60 Superdex 200 preparative grade column (Amersham Biosciences) pre-equilibrated with 20 mM Tris-HCl, pH 8.0, 300 mM NaCl, 5% glycerol, 2 mM
# DTT. […]
# for EcLpxH2 and KpLpxH, respectively, calculated using the ProtParam tool(1) were analyzed by SDS PAGE and stored in 20 mM Tris-HCl (pH 8.0) containing 300 mM NaCl and 2 mM DTT at -80 […]
# T1 sequence (P43341 whole entry): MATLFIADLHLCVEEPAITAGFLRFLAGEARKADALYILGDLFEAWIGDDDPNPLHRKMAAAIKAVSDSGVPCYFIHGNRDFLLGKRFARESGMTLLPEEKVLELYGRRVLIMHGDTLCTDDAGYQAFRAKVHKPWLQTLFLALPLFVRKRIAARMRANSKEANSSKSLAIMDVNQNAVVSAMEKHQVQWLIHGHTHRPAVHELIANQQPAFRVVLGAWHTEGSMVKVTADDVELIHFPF
row,SMILES,pIC50
1,CN(c1ccc(CNCCN)cc1C(=O)Nc1ccc(S(=O)(=O)N2CCN(c3cc(Cl)cc(Cl)c3)CC2)cc1)S(C)(=O)=O [EBL-3025],8.47
2,"CC(=O)N1CCc2cc(S(=O)(=O)N3CCN(c4cccc(C(F)(F)F)c4)CC3)ccc21 [AZ1, reference compound]",6.28
3,CN(c1ccccc1C(=O)Nc1ccc(S(=O)(=O)N2CCCCC2)cc1)S(C)(=O)=O [JEDI-852],5.89
4,Cc1cc(C#N)nc(N2CCN(S(=O)(=O)c3ccc(NC(=O)c4ccccc4N(C)S(C)(=O)=O)cc3)CC2)n1 [EBL-3339],8.82
5,CN(c1ccccc1C(=O)Nc1ccc(S(=O)(=O)N2CCN(c3cccc(C(F)(F)F)c3)CC2)cc1)S(C)(=O)=O [JEDI-1444],8.59
